# Test results published in patent US20230355753A1, “BISPECIFIC ANTIBODY AGAINST CD3 AND CD20 IN COMBINATION THERAPY FOR TREATING DIFFUSE LARGE B-CELL LYMPHOMA” (GENMAB A/S, priority 2020, published 2023).
# Read-outs that look alike come from different tables or passages of the source.
# Columns and labels:
# [1] = test system: R/R B-NHL; experiment: Ongoing clinical trial of epcoritamab monotherapy (NCT03625037); format: in vivo
# Excerpt: Epcoritamab as monotherapy is currently in a clinical trial for the treatment of relapsed/refractory (R/R) (ClinicalTrials.gov Identifier: NCT03625037).
# [2] = test system: R/R DLBCL eligible for ASCT; format: in vivo; details: in combination with R-DHAX/C, preliminary
# Experimental: The trial is conducted in 2 parts: dose escalation (Part 1) and expansion (Part 2). Subjects participate in only one part. Both parts consist of a screening period, a treatment period, a safety follow-up period, and a survival follow-up period.
# Epcoritamab is initially be administered in combination with R-DHAX/C in a 3-subject cohort. DLTs are evaluated during the first 28 days.
# Dexamethasone (40 mg) is administered intravenously or orally on days 1-4 of a cycle once every 3 weeks (Q3W) for cycles 1-3. Cytarabine (2 g/m^2) is administered intravenously on day 1 (usually over 3 hours), repeated after 12 hours (may result in a second dose on day 2 depending on timing of first dose), once every 3 weeks (Q3W) for cycles 1-3. […] Carboplatin (for DHAC) (AUC=5 mg/ml/min; Calvert's formula) is administered intravenously on day 1 once every 3 weeks (Q3W) for cycles 1-3.
# CRS is graded according to the ASTCT grading for CRS (Tables 6 and 7), and for treatment of CRS, subjects should receive supportive care. […]
# [3] = test system: CD20-expressing Raji-luc tumor cells; details: even in the presence of an excess of rituximab variant with inert Fc domain (IgG1-RTX-FEAR); cited from earlier work
# [4] = test system: primary DLBCL and follicular lymphoma patient biopsies; details: cited from earlier work
substance,measurement,setting,value
"epcoritamab: IgG1 bispecific CD3xCD20 antibody, heavy/light chain pairs SEQ ID NOs: 24/25 and 26/27; CAS 2134641-34-0",tolerated dose,"[1]; human, in vivo",at least 48 mg
same,dose-limiting toxicities,"[1]; monotherapy, R/R B-NHL patients, preliminary data",no dose-limiting toxicities reported
same,responders observed,"[2]; escalation phase, as of Sep. 8, 2021, total of 22 patients dosed, non-validated",4
same,responders observed,"[2]; expansion phase 48 mg, as of Sep. 8, 2021, response data not completely entered",0
same,tumor growth in the xenograft model,[3],effectively reduce tumor growth
same,T-cell-mediated cytotoxicity,[4]; biopsies taken a certain amount of time after administration of an anti-CD20 antibody,induced T-cell-mediated cytotoxicity
same,tumor cell kill,[4]; biopsy taken 2 weeks after administering the anti-CD20 antibody,up to 40%
